Blank lines part the entries; values can stand above or below the molecule they belong to.
Experiments:
[1] = molecular target: T1, vitamin D receptors (Homo sapiens, UniProt P11473); conditions: as set forth in the '352, '861 and '622 patents; cited from earlier work
T1 sequence (P11473 1-427): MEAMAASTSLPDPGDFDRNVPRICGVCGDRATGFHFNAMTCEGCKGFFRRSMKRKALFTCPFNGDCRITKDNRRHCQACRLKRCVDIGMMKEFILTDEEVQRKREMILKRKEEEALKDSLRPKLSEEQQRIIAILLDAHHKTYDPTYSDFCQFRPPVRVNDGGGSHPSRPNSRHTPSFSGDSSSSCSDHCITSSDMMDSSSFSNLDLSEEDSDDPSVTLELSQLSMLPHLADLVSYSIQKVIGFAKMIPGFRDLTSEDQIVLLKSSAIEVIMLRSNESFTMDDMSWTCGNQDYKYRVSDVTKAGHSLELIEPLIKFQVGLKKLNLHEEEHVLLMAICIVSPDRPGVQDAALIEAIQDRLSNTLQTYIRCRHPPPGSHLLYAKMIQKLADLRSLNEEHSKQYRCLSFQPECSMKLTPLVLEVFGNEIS

[2] = as set forth in the '352, '861 and '622 patents; cited from earlier work
[3] = as set forth in the '352, '861 and '622 patents; cited from earlier work; remark: listed apart in the source
[4] = test system: Human promyelocytic leukemia (HL60) cells; experiment: HL-60 differentiation (nitro blue tetrazolium reduction); format: cell-based; conditions: HL-60 cells in culture; FIG. 2
Experimental: FIG. 2 is a graph comparing the percent HL-60 cell differentiation as a function of the concentration of (20R)-2 MbisP with that of 1,25(OH)2D3.
The study drugs were dissolved in ethanol and the concentrations determined using UV spectrophotometry. Serial dilutions were prepared so that a range of drug concentrations could be tested without changing the final concentration of ethanol (≦0.2%) present in the cell cultures.
Human promyelocytic leukemia (HL60) cells were grown in RPMI-1640 medium containing 10% fetal bovine serum. The cells were incubated at 37° C. in the presence of 5% CO2.
HL60 cells were plated at 1.2×10^5 cells/ml. Eighteen hours after plating, cells in duplicate were treated with drug. Four days later, the cells were harvested and a nitro blue tetrazolium reduction assay was performed (Collins et al., 1979; J. Exp. Med. 149:969-974). The percentage of differentiated cells was determined by counting a total of 200 cells and recording the number that contained intracellular black-blue formazan deposits. Verification of differentiation to monocytic cells was determined by measuring phagocytic activity (data not shown).

[5] = Intestinal calcium transport (everted gut sac method); format: in vivo, Sprague-Dawley rats; conditions: rats, ip, four consecutive doses, even very high concentrations; FIG. 5
From the text: FIG. 5 is a bar graph comparing the intestinal calcium transport activity of (20R)-2 MbisP with that of 1,25(OH)2D3.
(§1) Male, weanling Sprague-Dawley rats were placed on Diet 11 (0.47% Ca) diet +AEK for one week followed by Diet 11 (0.02% Ca) +AEK for 3 weeks. The rats were then switched to a diet containing 0.47% Ca for one week followed by two weeks on a diet containing 0.02% Ca. Dose administration began during the last week on 0.02% calcium diet. Four consecutive ip doses were given approximately 24 hours apart. Twenty-four hours after the last dose, blood was collected from the severed neck and the concentration of serum calcium determined as a measure of bone calcium mobilization. The first 10 cm of the intestine was also collected for intestinal calcium transport analysis using the everted gut sac method.

[6] = Hypercalcemia: serum calcium in adult rats; format: in vivo, Sprague-Dawley rats; conditions: ip, doses as high as 45 nmol/day, FIG. 6
Experimental: FIG. 6 is a bar graph comparing the serum calcium levels in adult rats after administration of (20R)-2 MbisP and 1,25(OH)2D3.
(§2) Adult, female Sprague-Dawley rats were obtained from Harlan (Madison, Wis.).
(§3) Upon receipt, the animals were identified by individual tail marks. Animals were housed in suspended, stainless steel, wire-bottom cages. Each cage contained one animal. The animal rooms were maintained at a temperature of 68 to 72° F. and a relative humidity of 25 to 75%. The holding rooms were set to provide 12 hours of light per day. Water and a purified rodent diet (Suda et al., Purified Rodent Diet-Diet 11) containing […] 0.3% phosphorus and fat soluble vitamins A, D, E and K were provided ad libitum.
(§4) Animals were randomly assigned to treatment groups (5 animals/group). All doses were administered intraperitoneally in 100 microliters of propylene glycol. Four to seven consecutive doses were given approximately 24 hours apart. Dosing was initiated after the animals had been allowed to acclimate for at least one week. […]
Twenty-four hours after the final dose, approximately 1 ml of blood was collected from the tail artery of each experimental animal. […] The level of calcium was determined by diluting the serum into 0.1% lanthum chloride and measuring the absorbance on an atomic absorption spectrophotometer (Perkin Elmer Model 3110, Shelton, Conn.).

[7] = molecular target: T2, full-length recombinant rat vitamin D receptor (Rattus norvegicus, UniProt P13053); experiment: Vitamin D receptor competitive binding with [3H]-1,25-(OH)2-D3; conditions: competition with [3H]-1,25-(OH)2-D3; FIG. 1
T2 construct: Full-length recombinant rat receptor was expressed in E. coli BL21(DE3) Codon Plus RIL cells; histidine tag (C); made in house; host or cells: E. coli BL21(DE3) Codon Plus RIL
T2 sequence (P13053 1-423): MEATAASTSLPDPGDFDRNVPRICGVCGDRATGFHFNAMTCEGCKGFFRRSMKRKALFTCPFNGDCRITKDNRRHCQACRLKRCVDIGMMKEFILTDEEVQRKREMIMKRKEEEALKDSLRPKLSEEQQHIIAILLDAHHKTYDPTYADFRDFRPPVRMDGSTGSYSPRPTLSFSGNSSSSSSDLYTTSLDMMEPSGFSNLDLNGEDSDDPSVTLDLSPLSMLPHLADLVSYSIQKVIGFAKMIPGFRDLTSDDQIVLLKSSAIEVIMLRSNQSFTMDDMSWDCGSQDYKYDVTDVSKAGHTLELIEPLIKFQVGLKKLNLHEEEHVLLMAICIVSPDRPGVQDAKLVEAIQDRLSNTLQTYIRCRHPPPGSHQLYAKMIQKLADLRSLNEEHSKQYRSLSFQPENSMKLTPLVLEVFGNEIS
From the text: FIG. 1 is a graph comparing the relative activity of (20R)-2 MbisP and 1,25(OH)2D3 to compete for binding with [^3H]-1,25-(OH)2-D3 to the full-length recombinant rat vitamin D receptor.
Full-length recombinant rat receptor was expressed in E. coli BL21(DE3) Codon Plus RIL cells and purified to homogeneity using two different column chromatography systems. The first system was a nickel affinity resin that utilizes the C-terminal histidine tag on this protein. The protein that was eluted from this resin was further purified using ion exchange chromatography (S-Sepharose Fast Flow). Aliquots of the purified protein were quick frozen in liquid nitrogen and stored at −80° C. until use. For use in binding assays, the protein was diluted in TEDK50 (50 mM Tris, 1.5 mM EDTA, pH 7.4, 5 mM DTT, 150 mM KCl) with 0.1% Chaps detergent. […]
Unlabeled ligands were dissolved in ethanol and the concentrations determined using UV spectrophotometry (1,25(OH)2D3: molar extinction coefficient=18,200 and λmax=265 nm; Analogs: molar extinction coefficient=42,000 and λmax=252 nm). […]
Radiolabeled and unlabeled ligands were added to 100 mcl of the diluted protein at a final ethanol concentration of ≦10%, mixed and incubated overnight on ice to reach binding equilibrium. […] Total binding was determined from the tubes containing only radiolabeled ligand.

[8] = test system: parathyroid hormone (PTH); experiment: PTH suppression in adult rats; format: in vivo, Sprague-Dawley rats; conditions: ip, 7 consecutive days, FIG. 7
Experimental: FIG. 7 is a bar graph comparing the percent parathyroid hormone (PTH) suppression in adult rats of (20R)-2 MbisP with 1,25(OH)2D3.
as §2, §3, §4
Twenty-four hours after the final dose, blood was collected from the tail artery and the concentration of bioactive serum PTH was measured using the rat BioActive Intact PTH ELISA Kit from Immutopics, Inc. (San Clemente, Calif.).

[9] = test system: 24-hydroxylase (24Ohase) gene promoter; experiment: In vitro transcription assay (luciferase reporter in ROS 17/2.8 cells); format: cell-based; conditions: FIG. 3
Experimental: FIG. 3 is a graph comparing the in vitro transcription activity of (20R)-2MbisP with that of 1,25(OH)2D3.
Transcription activity was measured in ROS 17/2.8 (bone) cells that were stably transfected with a 24-hydroxylase (24Ohase) gene promoter upstream of a luciferase reporter gene (Arbour et al., 1998). Cells were given a range of doses. Sixteen hours after dosing the cells were harvested and luciferase activities were measured using a luminometer. RLU=relative luciferase units.

[10] = Bone calcium mobilization (serum calcium on low calcium diet); format: in vivo, Sprague-Dawley rats; conditions: rats, ip, four consecutive doses, even very high concentrations; FIG. 4
From the text: FIG. 4 is a bar graph comparing the bone calcium mobilization activity of (20R)-2 MbisP with that of 1,25(OH)2D3.
as §1

Molecule: 1α-hydroxy-2-methylene-19-nor-(20S)-homopregnacalciferol
binding activity to vitamin D receptors [1]: relatively high
cell differentiation activity [2]: relatively high
calcemic activity as compared to 1α,25-dihydroxyvitamin D3 [3]: little if any

Molecule: 1α-hydroxy-2-methylene-19-nor-bishomopregnacalciferol
binding activity to vitamin D receptors [1]: relatively high
cell differentiation activity [2]: relatively high
calcemic activity as compared to 1α,25-dihydroxyvitamin D3 [3]: little if any

hypercalcemia (serum calcium) [6]: failed to cause hypercalcemia
times less active than 1,25-(OH)2D3 in turning on transcription of a reporter gene coupled to the CYP-24 promoter [9]: about 5 times
Molecule: C=C1[C@H](O)CC(=C/C=C2\CCC[C@]3(C)C([C@H](C)CC)CC[C@@H]23)C[C@H]1O (stereo in doubt) [2-Methylene-19-nor-(20R)-1α-hydroxy-bishomopregnacalciferol]
times less active than 1,25-(OH)2D3 in causing the differentiation of HL-60 cells [4]: about 5 times
intestinal calcium transport [5]: does not support
binding to the recombinant vitamin D receptor relative to 1,25-(OH)2D3 [7]: approximately equally effective as 1,25-(OH)2D3
suppression of parathyroid hormone (PTH) in the plasma [8]: considerable activity
bone calcium mobilization [10]: does not support

Molecule: C=C1[C@H](O)CC(=C/C=C2\CCC[C@]3(C)[C@@H](CC)CC[C@@H]23)C[C@H]1O [1α-Hydroxy-2-methylene-19-nor-pregnacalciferol]
binding activity to vitamin D receptors [1]: relatively high
cell differentiation activity [2]: relatively high
calcemic activity as compared to 1α,25-dihydroxyvitamin D3 [3]: little if any
